According to patent US20220152117A1, “METHODS OF PROMOTING CELLULAR MATURATION WITH AMPK ACTIVATORS” (UNIVERSITY OF WASHINGTON, priority 2019, published 2022):

Columns and labels:
[1] = tested on: hPSC-CMs; experiment: Western blotting with phospho-specific antibodies (pACC, pAMPK, pAkt, pERK, p-p38-MAPK); format: cell-based, human
Experimental: Total protein was acquired from control cardiomyocytes or cardiomyocytes after two weeks of AICAR treatment and subjected to SDS-PAGE. The lanes were loaded with equal amount of protein and were checked by Ponceau S staining. After blocking with 5% milk, the membranes were incubated with anti-pACC ([…]) rabbit polyclonal antibody (Cell Signaling Technology), anti-pAMPK, anti-pAkt, anti-pERK, anti-p38-MAPK, or anti-GAPDH mouse monoclonal antibody (Abcam) overnight while shaking at 4° C. After incubation with anti-rabbit (for pACC) and anti-mouse (for GAPDH, pAMPK, pAkt, pERK, and p-p38-MAPK) horseradish peroxidase-coupled secondary antibody (Santa Cruz Biotechnology®), bands were visualized with SuperSignal West Femto Trial KitTM (Thermo Scientific®). The immunoblots band densities were analyzed in Image J.

[2] = tested on: hPSC-CMs; experiment: Quantitative RT-PCR gene expression in cardiomyocytes; format: cell-based, human
Experimental: Total RNA was isolated using the Qiagen RNeasy Kit™, and mRNA was reverse transcribed using the Superscript™ III first strand cDNA synthesis kit (Invitrogen®). All primers were purchased from Real Time Primers, and qRT-PCR was performed using SYBR™ green chemistry and an ABI 7900HT instrument or TAQMAN™ with BIORad CXF384™. Samples were normalized using hypoxanthine-guanine phosphoribosylthransferase (HPRT) as a housekeeping gene. The sequences of the primers are listed below in Table 1. The primers used for titin isoforms were adapted from^29. All Q-RT-PCR assays were performed in triplicate on control and experimental groups and firstly normalized to hHPRT level and then normalized against control cardiomyocytes. N=4-5 independent experiments.

[3] = tested on: neurons derived from an FAD patient cell line harboring a duplication of the APP gene; experiment: Secreted amyloid beta peptides in neuronal culture media by ELISA; format: cell-based, human; settings: three-week neuronal differentiation, at each week
Experimental: Undifferentiated human IMR90-induced pluripotent stem cells, originally derived from lung fibroblasts^22 (James A. Thomson, University of Wisconsin-Madison), were expanded using mouse embryonic fibroblast-conditioned medium supplemented with 5 ng/ml basic fibroblast growth factor. Cardiomyocytes were obtained using a previously described protocol^2 that involves the serial application of activin A and bone morphogenetic protein-4 (BMP4) under serum-free, monolayer culture conditions. The cultures were also supplemented with the Wnt agonist CHIR99021 in the early stages of differentiation followed by the Wnt antagonist Xav939. In this study, cardiomyocytes derived from human undifferentiated IMR90-induced stem cells were used, and for brevity, these are referred to human induced pluripotent stem cell-derived cardiomyocytes (hiPSC-CM). After 20 days of in vitro differentiation, the cells were dispersed using 0.05% trypsin-EDTA and re-plated. Cultures were fed every other day thereafter with serum-free RPMI-B27 plus insulin. Only cell preparations containing >80% cardiac troponin T-positive cardiomyocytes (by flow cytometry) were used for the current investigation. […]
Secreted Amyloid beta (Ab) peptides were measured from the neuronal culture media at one, two and three-week time points after AICAR treatment by ELISA assay (Meso Scale Discovery®).

[4] = tested on: L6 myotube; settings: literature study (ref 44); cited from earlier work
[5] = AICAR treated vs control hPSC-CMs
[6] = hPSC-CMs, normalized to HPRT then to control cells
[7] = normalized to HPRT then to control cells

NC(=O)c1ncn([C@@H]2O[C@H](CO)[C@@H](O)[C@H]2O)c1N [AICAR, 5-amino-4-imidazolecarboxamide riboside-1-β-D-ribofuranoside]
phopho-p38-MAPK ([1]; 1 mM AICAR, time course): Transient increases
phospho-ERK ([1]; 1 mM AICAR, time course): Transient increases
phospho-Thr172-AMPK phosphorylation ([1]; 1 mM AICAR, time course): rapid robust transient
phosphorylation of Akt at Ser473 ([1]; 1 mM AICAR, time course): increased
phosphorylation of Ser79-ACC ([1]; 1 mM AICAR, time course): rapid, time-dependent increase
phospho-ACC (Ser 79) level by immunoblot vs control cells ([1]; two weeks of AICAR treatment, same exposure conditions): more than one thousand-fold increase
cTnI expression levels [2, 5]: upregulated
ssTnI to cTnI ratio [2, 5]: significantly downregulated
titin N2B expression level [2, 5]: significantly upregulated
titin N2BA expression level [2, 5]: did not change
titin N2BA to N2B ratio [2, 5]: significantly down-regulated
total titin expression level [2, 5]: did not change
FABP and PDK4 gene expression levels in cardiomyocytes derived from RUES2 hESCs ([2]; RUES2 hESC-derived cardiomyocytes): same trend of changes
fatty acid binding protein (FABP) expression level [2, 6]: significant increase
pyruvate dehydrogenase kinase-4 (PDK4) expression level [2, 6]: significant increase
PGC-1α mRNA level [2, 7]: 2.07±0.31
estrogen-related receptor α (ERR α) mRNA level [2, 7]: 1.50±0.12
mitochondrial transcription factor A (TFAM) mRNA level [2, 7]: 2.03±0.11
peroxisome proliferator activated receptor alpha (PPARα) mRNA level [2, 7]: 1.78±0.22
KCNJ2 expression ([2]; vs. control): 1.71±0.17 fold
SCN5a expression ([2]; vs. control): 1.58±0.2 fold
α-myosin heavy chain (α-MHC) expression ([2]; vs. control): 2.64±0.51 fold
levels of secreted Ab1-40 peptides [3]: significantly reduced
levels of secreted Ab1-42 peptides [3]: significantly reduced
ERK phosphorylation in L6 myotube [4]: leads to ERK phosphorylation
